Laboratory results taken from US7364874B2, “Mediucm for detecting Van A and Van B vancomycin-resistant entercocci and method of using the same” (priority 2001, dated 2008).
Values after ≈ are worked out from the molar mass of the structure shown. Where two headings read alike, the source gives them in different places.

Experiments:
[1] = system: Van A VRE; conditions: carries van A gene; cited from earlier work
[2] = system: Van B VRE; conditions: carries van B gene; cited from earlier work
[3] = system: Van C VRE; conditions: cited from earlier work
[4] = system: Van D VRE; conditions: cited from earlier work
[5] = system: Van E VRE; conditions: cited from earlier work
[6] = system: Van G VRE; conditions: cited from earlier work
[7] = system: Van A VRE; test: microbe, parasite or virus in culture; type: cell-based, E. faecium; conditions: Enterococcus, read-out: vancomycin MIC
[8] = system: Van B VRE; test: microbe, parasite or virus in culture; type: cell-based, E. faecium, E. faecalis; conditions: Enterococcus, read-out: vancomycin MIC
[9] = system: Van C type, Enterococcus casseliflavus; test: Test Example 2: vancomycin MIC changes when D-lactic acid (DL-sodium lactate) is added (checkerboard method); type: cell-based
[10] = system: Van C type, Enterococcus gallinarum; test: as above; type: cell-based
[11] = system: Van A VRE; test: as above; type: cell-based, E. faecium
[12] = system: Van B VRE; test: as above; type: cell-based, E. faecium, E. faecalis
[13] = system: Van C type, Enterococcus casseliflavus; test: microbe, parasite or virus in culture; conditions: read-out: vancomycin MIC, with addition of D-cycloserine, all strains of the group
[14] = system: Van C type, Enterococcus gallinarum; test: microbe, parasite or virus in culture; conditions: read-out: vancomycin MIC, with addition of D-cycloserine, all strains of the group
[15] = system: Enterococcus faecalis that does not carry vancomycine resistance genes (incl. ATCC29212); test: Test Example 2: vancomycin MIC changes when D-lactic acid (DL-sodium lactate) is added (checkerboard method); type: cell-based; conditions: DL-sodium lactate 0.025-[…]
[16] = system: Enterococcus faecium that does not carry vancomycine resistance genes; test: as above; type: cell-based; conditions: DL-sodium lactate 0.025-[…]
[17] = system: Enterococcus avium that does not carry vancomycine resistance genes; test: as above; type: cell-based; conditions: DL-sodium lactate 0.025-[…]
[18] = Enterococcus, VRE, read-out: vancomycin MIC

## teicoplanin
[1]
  minimum inhibitory concentration (MIC): 16 to 512 µg/mL
[2]
  minimum inhibitory concentration (MIC): 0.5 to 1 µg/mL
[3]; carries van C gene
  minimum inhibitory concentration (MIC): 0.5 to 1 µg/mL
[4]; carries van D gene
  minimum inhibitory concentration (MIC): 4 to 1024 µg/mL
[5]; carries van E gene
  minimum inhibitory concentration (MIC): 0.5 µg/mL
[6]; carries van G gene
  minimum inhibitory concentration (MIC): 0.5 µg/mL

## CN[C@H](CC(C)C)C(=O)N[C@H]1C(=O)N[C@@H](CC(N)=O)C(=O)N[C@H]2C(=O)N[C@H]3C(=O)N[C@H](C(=O)N[C@H](C(=O)O)c4cc(O)cc(O)c4-c4cc3ccc4O)[C@H](O)c3ccc(c(Cl)c3)Oc3cc2cc(c3O[C@@H]2O[C@H](CO)[C@@H](O)[C@H](O)[C@H]2O[C@H]2C[C@](C)(N)[C@H](O)[C@H](C)O2)Oc2ccc(cc2Cl)[C@H]1O [vancomycin]
[7]
  MIC: > 32 µg/mL
[8]
  MIC: > 32 µg/mL
[9]; Enterococcus casseliflavus, read-out: vancomycin MIC, with addition of DL-sodium lactate, all strains of the group
  MIC: < 32 µg/mL
[10]; Enterococcus gallinarum, GALLINARUM, read-out: vancomycin MIC, with addition of DL-sodium lactate, all strains of the group
  MIC: < 32 µg/mL
[11]; [18]
  MIC: > 32 µg/mL
[12]; [18]
  MIC: > 32 µg/mL
[3]
  minimum inhibitory concentration (MIC): 2 to 32 µg/mL
[4]
  minimum inhibitory concentration (MIC): 64 to 1024 µg/mL
[5]
  minimum inhibitory concentration (MIC): 16 µg/mL (≈ 11 µM)
[6]
  minimum inhibitory concentration (MIC): 12 to 16 µg/mL
[13]
  MIC: < 32 µg/mL
[14]
  MIC: < 32 µg/mL

## CC(O)C(=O)[O-].[Na+] (racemic) [DL-sodium lactate]
[15]
  effect of the addition of DL-sodium lactate on the vancomycin MIC: did not change the vancomycin MIC
[16]
  effect of the addition of DL-sodium lactate on the vancomycin MIC: did not change the vancomycin MIC
[17]
  effect of the addition of DL-sodium lactate on the vancomycin MIC: did not change the vancomycin MIC
[9]; DL-sodium lactate 0.025-[…]
  effect of the addition of DL-sodium lactate on the vancomycin MIC: The addition of DL-sodium lactate did not change the vancomycin
[10]; DL-sodium lactate 0.025-[…]
  effect of the addition of DL-sodium lactate on the vancomycin MIC: The addition of DL-sodium lactate did not change the vancomycin
[11]; DL-sodium lactate 0.025-[…], 5 strains
  effect of the addition of DL-sodium lactate on the vancomycin MIC: increased the vancomycin MIC or maintained the vancomycin MIC as high as more than 512 μg/ml
[12]; for increasing the vancomycin MIC
  optimum concentration of addition of DL-sodium lactate: 0.2 mol/L
[12]; growth worse in line with the added amount
  concentration of DL-sodium lactate at which the organisms tend to grow worse: more than 0.4 mol/l
